Results published in patent US9868707B2, “Small molecule agonists of neurotensin receptor 1” (SANFORD-BURNHAM MEDICAL RESEARCH INSTITUTE, priority 2012, dated 2018).

Target: NTR1 (Homo sapiens, UniProt P30989)
Test: NTR1 high-content imaging (HCS) dose response, NTR1-U2OS cells
Format: cell-based
Parameters: host or cells: U2OS osteosarcoma
Details: n = 4 unless otherwise noted; for EC50: Ave. ± S.E.M., read-out: HCS NTR1 Potency EC50; for Emax: read-out: HCS NTR1 Potency Emax
Excerpt: The cell lines utilized in the high-content imaging assays, which include the NTR1-, NTR2-, and GPR35-U2OS osteosarcomas, were obtained from the laboratory of Dr. Lawrence Barak at the Duke University Medical Center. The media used in the culture of the cell lines, as well as the assays themselves, consisted of Minimum Essential Medium (15-010-CM) and L-glutamine (25-005-CL) from Cellgro/Mediatech (Manassas, Va.), fetal bovine serum (SH30396.03) from Hyclone (Logan, Utah), penicillin-streptomycin solution (PS-20) from Omega Scientific in Tarzana, Calif., G418 (ant-gn-1) from Invivogen (San Diego, Calif.), and zeocin (R250-01) from Invitrogen (Carlsbad, Calif.). Cell lines were cultured in T225 tissue culture flasks (431082) supplied by Corning (Corning, N.Y.). Additional reagents employed include Dulbecco's Phosphate-Buffered Saline (DPBS) (21-031CV) from Cellgro/Mediatech, Trypsin-EDTA 0.05% (25300) from Invitrogen, paraformaldehyde (30528954) from Acros Organics (Geel, Belgium), Hoechst 33342 (H3570) from Invitrogen. The high-content assays were run in 1536-well plates (29326) supplied by Aurora Biotechnology (Poway, Calif.) and utilized aluminum plate seals (T592100) from E&K Scientific (Santa Clara, Calif.).
The neurotensin 1 peptide (N6383) from Sigma-Aldrich (St. Louis, Mo.) was used as a positive control in the NTR1 primary HCS assay. For the NTR2 selectivity assay, the non-specific, small molecule 3-(4-fluorophenyl)-7,8-dimethoxy-5-(4-methylbenzyl)-5H-pyrazolo[4,3-c]quinolone which was synthesized internally was used as a positive control. The GPR35 selectivity screen utilized zaprinast (ALX430-020-M010) from Alexis Biochemicals (Farmingdale, N.Y.) as a control.
The high-content imaging based NTR1 primary screen in 1536-well format was utilized to assay the MLSMR library of chemical entities in the following manner. On day one, 4 uL of a cell suspension containing 350,000 NTR1-U2OS cells per mL is added to each well of a 1536-well assay plate. Cells are plated in MEM medium containing 2.5% Fetal Bovine Serum, 1% Penicillin/Streptomycin solution, 1% L-Glutamine, 400 ug/mL G418, and 200 ug/mL Zeocin. The assay plates are then incubated overnight at 37° C., under 5% CO2. Following the overnight incubation, a volume of 60 nL of the compounds at 2 mM in DMSO (final 20 μM, 1% DMSO) was transferred to columns 5-48 of the assay plates using a LabCyte Echo Liquid Handler. Next, 60 nL of DMSO were dispensed to columns 1-4, which served as the positive and neutral control wells. […] The assay plates were centrifuged on an Eppendorf 5810 centrifuge at 1000 rpm for 1 min to ensure even liquid levels in the wells of the assay plates. The assay plates were then returned to the incubator for 1 hour. Following the hour-long incubation at 37° C., the cells in each well were fixed with 4 uL of 6% paraformaldehyde added with a Multidrop Combi. The assay plates were centrifuged as before and incubated at room temperature for 1 hour. On the Kalypsys, plates were then aspirated down to 2.5 uL per well and washed twice with 11 uL per well of DPBS, followed by a final aspiration to 2.5 uL per well. On the Combi dispenser, 5 uL of 5 ug/mL Hoechst 33342 diluted in DPBS was added to each well of assay plates. The plates were again centrifuged as previously described, sealed, and incubated for at least 1 hour prior to being loaded on a PerkinElmer Opera QEHS.
Image acquisition was performed with a 45 plate capacity loader/stacker and the following settings: 40×0.6 NA air objective, acquisition camera set to 2-by-2 binning for an image size of 688 by 512 pixels, beta-arrestin-GFP acquired using 488 nm laser excitation and 540/75 nm emission filters, DAPI (nuclei) using 365 nm Xenon lamp excitation and 450/50 nm emission filters, 3 fields per well. Image analysis was performed using the Acapella Spot Detection Algorithm. For analysis settings and the metrics employed in the data analyses, please refer to supplemental information.

Sequence of NTR1 (P30989 whole entry, species assumed): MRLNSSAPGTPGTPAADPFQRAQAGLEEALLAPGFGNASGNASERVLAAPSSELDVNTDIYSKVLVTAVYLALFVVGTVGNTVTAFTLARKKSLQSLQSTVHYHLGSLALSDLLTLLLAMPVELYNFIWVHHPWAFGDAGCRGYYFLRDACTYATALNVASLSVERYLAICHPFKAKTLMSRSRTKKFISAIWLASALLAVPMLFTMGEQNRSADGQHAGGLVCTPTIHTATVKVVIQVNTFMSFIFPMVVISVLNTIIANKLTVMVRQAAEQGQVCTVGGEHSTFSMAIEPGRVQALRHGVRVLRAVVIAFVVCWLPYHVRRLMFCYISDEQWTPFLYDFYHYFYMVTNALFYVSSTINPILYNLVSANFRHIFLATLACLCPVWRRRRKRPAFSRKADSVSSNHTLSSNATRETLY

Structure (SMILES) | EC50 [µM] | Emax [%]
COc1cc2nc(-c3ccccc3)nc(N3CCN(c4ccccc4OC)CC3)c2cc1OC [6,7-di-OMe; phenyl; 2-OMe, 2-phenyl-6,7-dimethoxy-4-(4-(2-methoxyphenyl)piperazin-1-yl)quinazoline] | 20 ± 10.7 | 78
C=Cc1nc(N2CCN(c3ccccc3OC)CC2)c2cc(OC)c(OC)cc2n1 [Compound 314, 6,7-dimethoxy-4-(4-(2-methoxyphenyl)piperazin-1-yl)-2-vinylquinazoline] | 7 ± 1 | 100
COc1cc2nc(C3CCC3)nc(N3CCN(c4ccccn4)CC3)c2cc1OC [Compound 326, 2-cyclobutyl-6,7-dimethoxy-4-(4-(pyridin-2-yl)piperazin-1-yl)quinazoline] | 25.5 ± 1.7 | 91.4
